Data taken from patent US20050004007A1, “Promotion of adoptosis in cancer cells by co-administration of cyclin dependent kinase inhibitiors and cellular differentiation agents” (priority 2000, published 2005).

How the values were obtained:
[1] = system: histones H3 and H4; experiment: acetylated histone Western (HDAC assay) in U937 cells; format: cell-based, human; conditions: 1 mM SB, 100 nM FP
Experimental: Histone Deacetylase (HDAC) Assay. Acid extraction of proteins from treated cells and detection of acetylated histones H3 and H4 by Western blot analysis was performed per the manufacturer's instructions (Upstate Biotechnology). 10 μg of extract was loaded per lane and separated on pre-cast 4-20% Biorad Gradient Gels.

[2] = system: U937 myelomonocytic human leukemia cells; experiment: percent cell death; format: cell-based; conditions: 1 μM SAHA, 100 nM FP, 24 hours after administration
[3] = system: HL60 human leukemia cells; experiment: loss of mitochondrial membrane potential (DiOC6 uptake); format: cell-based; conditions: 3, 5, or 10 μM ATRA and 80 nM FP
Experimental: Assessment of mitochondrial membrane potential. At designated times, 1 ml aliquots of cells (2×10^5) were harvested and incubated with 40 nM DiOC6 for 15 minutes at 25° C. as previously described [Zamzami et al 1995]or at 37° C. Samples were analyzed using a Becton Dickinson FACScan flow cytometer (excitation λ=488 nm; emission λ=525 nm). […] Data acquisition and analysis was performed using […] Software (Becton Dickinson, Mansfield, Mass.).

[4] = system: pRb/E2F complexes; experiment: pRb immunoprecipitation and EMSA of E2F in U937 cells; format: cell-based, human; conditions: 8 h exposure; 10 nM PMA, 100 nM FP, 1 mM SB
Experimental: Electrophoretic Mobility Shift Assay (EMSA) and Immunoprecipitation (IP). Whole-cell extracts were prepared as previously described [Bagchi et al. 1990] and EMSA following IP was performed as previously reported [Chellapan et al. 1991]. Whole cell extracts (150 μg) were combined with 4 μl of anti-RB monoclonal antibody (Calbiochem) for the IP. Immunoprecipitated proteins were recovered on Protein A sepharose beads and dissociated by treatment with deoxycholate. The presence of E2F in the IP was monitored by EMSA as previously noted [Yee et al. 1987].
Immunoprecipitation and EMSA. Whole-cell extracts were prepared by hypotonic shock followed by salt extraction, as described previously (Chellappan et al., 1991). Portions (50 to 200 μg) of whole-cell extracts were treated with 5 μl of the appropriate primary antibody in a volume of 100 μl at 4° C. for 1 h. Then, 3 mg of protein A-Sepharose or protein G-Sepharose in a 100-μl volume was added and incubated for an additional hour. The binding was performed in a buffer containing 20 mM HEPES (pH 7.9), 40 mM KCl, 1 mM MgCl2, 0.1 mM EGTA, 0.1 mM EDTA, 0.1 mM DTT, 0.1 mM NaF, 0.1 mM Na3VO4, 0.5% NP-40, and 3 mg of BSA per ml. The beads were washed six times with 600 μl of the same buffer and boiled in 20 μl of SDS sample buffer. […] The gel was dried, and the bands were detected by autoradiography.

[5] = system: cdk2 and cdk4; experiment: Western analysis of cdk2/4-phosphorylated pRb in U937 cells; format: cell-based, human; conditions: FP 100 nM, SB 1 mM
Experimental: Alternatively, whole cell-pellets were washed twice in PBS, resuspended in PBS, and lysed by the addition of I volume of loading buffer. Lysates were boiled for 10 min, centrifuged at 12,800 g for 5 min and quantified using Coomassie protein assay reagent (Pierce, Rockfold, Ill.). 25 μg of total proteins per point were separated by SDS-PAGE and electro-blotted to nitrocellulose. The blots were blocked in 5% non-fat milk in PBS-T and probed for 1 h with the appropriate dilution of primary antibody. Blots were washed 3×10 min in PBS-T and then incubated with a 1:2000 dilution of peroxidase-conjugated secondary antibody for 1 h at room temperature. Blots were again washed 3×10 min in PBS-T and then developed by enhanced chemiluminesence. Where indicated, blots were stripped and re-probed with antibodies directed against actin. […]

Structure (SMILES): CCCC(=O)[O-].[Na+] [SB, sodium butyrate]
- acetylation of histones H3 and H4 [1]: Acetylation of H3 and H4 was observed

Structure (SMILES): CN1CC[C@H](c2c(O)cc(O)c3c(=O)cc(-c4ccccc4Cl)oc23)[C@H](O)C1 [FP, Flavopiridol]
- cell death [2]: modest level of cell death
- loss of mitochondrial membrane potential (Δψm) [3]: no effect
- E2F binding to labeled probe after pRb immunoprecipitation [4]: clear reduction in E2F binding
- cdk2/4 activities (cdk2/4-phosphorylated pRb) [5]: moderate inhibition
